Results on 14 compounds are retold here after ChEMBL document CHEMBL1201862, “PubChem BioAssay data set” (2004).

Where “and” joins values, the source holds several entries; their conditions need not be identical. Equal values may be shown once.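 The compound was tested at five concentrations on cells cultured in 96-well plates, with a 48-hour exposure period. Abbreviation: GI50, concentration required for 50% inhibition of growth.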 Calls of active or inactive are those of the source. No stated cut-off is given here; in the data, active = GI50 up to about 1.1 µM and inactive = higher.

Among the test systems are UACC-257; K562; SF-268; CAKI-1; BT-549; PC-3; SK-MEL-5; SR; A498; HL-60; OVCAR-5; IGROV-1; Hs-578T; DU-145; Malme-3M; MDA-MB-231.
Holding throughout (experiment): growth of human tumour cells (NCI), 48 h

For the compound `O=c1[nH]c(N/N=C\C(O)C(O)C(O)CO)nc2ccccc12` (stereo not drawn), the GI50 in the assay on UACC-257, in the assay on K562, in the assay with SF-268, in the assay on CAKI-1, in the assay on BT-549 and with PC-3 was > 100 µM (inactive) throughout. Further, the GI50 was > 100 µM (inactive) in the assay on SK-MEL-5; > 100 µM (inactive) and 56.2 µM (inactive) in the assay on SR; > 100 µM (inactive) in the assay with A498; > 100 µM (inactive) in the assay on HL-60; > 100 µM (inactive) with OVCAR-5; > 100 µM (inactive) in the assay with IGROV-1. The GI50 in the assay with Hs-578T and in the assay with DU-145 was > 100 µM (inactive) in each case.

Consider `C=CCOCn1cnc2c(N)ncnc21`, for which the GI50 in the assay on UACC-257, in the assay on K562, in the assay on SF-268, in the assay on Malme-3M, in the assay on CAKI-1 and with PC-3 was > 100 µM (inactive) in each case. For the same compound, the GI50 with SK-MEL-5, in the assay with SR, in the assay on A498, in the assay on HL-60, in the assay on OVCAR-5 and in the assay on IGROV-1 was > 100 µM (inactive) throughout. The GI50 in the assay on MDA-MB-231, in the assay on Hs-578T and in the assay on DU-145 was > 100 µM (inactive) each time.

With `COc1cc2c(cc1OC)-c1c(oc3cc(OC4OC(CO)C(O)C(O)C4O)c(OC)cc3c1=O)C(O)O2` (stereo not drawn), the GI50 in the assay with UACC-257, in the assay on K562, in the assay on SF-268, in the assay on Malme-3M, in the assay on CAKI-1 and with BT-549 was > 100 µM (inactive) in each case. Besides, the GI50 in the assay on PC-3, with SK-MEL-5, in the assay on A498, in the assay on HL-60, with OVCAR-5 and in the assay with IGROV-1 was > 100 µM (inactive) throughout. Further, the GI50 in the assay on MDA-MB-231, with Hs-578T and with DU-145 was > 100 µM (inactive) throughout.

With `O=C1/C(=C/c2cccs2)NC(=S)N1CN1CCCCC1`, the GI50 in the assay with K562 is 52.1 µM (inactive); in the assay with SF-268, > 100 µM (inactive); with Malme-3M, > 100 µM (inactive); in the assay on PC-3, 98.2 µM (inactive); with SK-MEL-5, 35.3 µM (inactive); in the assay on SR, 88.9 µM (inactive). The GI50 was > 100 µM (inactive) in the assay on A498; > 100 µM (inactive) with OVCAR-5; 67.1 µM (inactive) in the assay on IGROV-1; > 100 µM (inactive) in the assay on MDA-MB-231; > 100 µM (inactive) in the assay on Hs-578T; 42.5 µM (inactive) with DU-145.

For `C=CCCCCCCCCC(=O)ON(Cc1ccc(O)c(OC)c1)C(=O)C(F)(F)F`, the GI50 is > 100 µM (inactive) with UACC-257; 75 µM (inactive) in the assay with K562; > 100 µM (inactive) with SF-268; > 100 µM (inactive) in the assay with Malme-3M; > 100 µM (inactive) with SK-MEL-5; 22.9 µM (inactive) with SR. Also, the GI50 in the assay on A498 was 44.1 µM (inactive); with HL-60, 12.4 µM (inactive); with OVCAR-5, > 100 µM (inactive); in the assay with IGROV-1, > 100 µM (inactive); with MDA-MB-231, > 100 µM (inactive); with Hs-578T, 10.8 µM (inactive). Further, the GI50 in the assay on DU-145 is > 100 µM (inactive).

In the case of `CN(C)CCCN1c2ccc([N+](=O)[O-])cc2CCc2cc([N+](=O)[O-])ccc21`, the GI50 in the assay with UACC-257 was 15.2 µM (inactive); with K562 it was 19.4 µM (inactive); in the assay on SF-268 it was 15.4 µM (inactive); with Malme-3M it was 10.3 µM (inactive); in the assay on PC-3, 16.4 µM (inactive); with SK-MEL-5 it was 15.7 µM (inactive). For the same compound, the GI50 in the assay with HL-60 was 13.6 µM (inactive); with OVCAR-5, 13.7 µM (inactive); in the assay with IGROV-1, 14.9 µM (inactive); in the assay with MDA-MB-231, 15.9 µM (inactive); in the assay with Hs-578T, 15.2 µM (inactive); with DU-145, 16.6 µM (inactive).

For `O=C1CC(C(O)C(O)C(O)CO)CC(=O)N1` (stereo not drawn), the GI50 with UACC-257 was > 100 µM (inactive); in the assay with K562, > 100 µM (inactive); in the assay with SF-268, > 100 µM (inactive); in the assay on Malme-3M it was > 100 µM (inactive); in the assay on CAKI-1 it was > 100 µM (inactive); with BT-549 it was 74 µM (inactive). Moreover, the GI50 in the assay on PC-3, in the assay with SK-MEL-5, in the assay with SR, with A498, with HL-60 and in the assay on OVCAR-5 was > 100 µM (inactive) in each case. Moreover, the GI50 with IGROV-1, in the assay on MDA-MB-231 and in the assay on Hs-578T was > 100 µM (inactive) each time.

For `c1ccc(Cc2cc(-c3ccccc3)[nH]n2)cc1`, the GI50 in the assay with UACC-257 is 13.3 µM (inactive); with K562, 13 µM (inactive); with SF-268, 22.3 µM (inactive); with CAKI-1, 11.5 µM (inactive); in the assay on PC-3 it was 15.8 µM (inactive); with SR, 18.4 µM (inactive). The GI50 was 16.9 µM (inactive) with HL-60; 20.6 µM (inactive) in the assay with OVCAR-5; 18.1 µM (inactive) in the assay with IGROV-1; 11.5 µM (inactive) in the assay on MDA-MB-231; 15.3 µM (inactive) in the assay on Hs-578T; 11.5 µM (inactive) in the assay with DU-145.

As for `CC(O)(/C=C/c1ccccc1)P(=O)(O)c1ccccc1` (stereo not drawn), the GI50 in the assay with UACC-257, in the assay with K562, in the assay on SF-268, with Malme-3M, in the assay on CAKI-1 and in the assay on PC-3 was > 100 µM (inactive) throughout. The GI50 with SK-MEL-5, with SR, in the assay on A498, with HL-60, with OVCAR-5 and with IGROV-1 was > 100 µM (inactive) each time. Besides, the GI50 with Hs-578T and in the assay on DU-145 was > 100 µM (inactive) throughout.

Consider `COc1cc2c(cc1OCCCC(=O)Nc1cc(C(=O)Nc3cc(C(=O)NCCCN(C)C)n(C)n3)n(C)n1)N=CC1CCCN1C2=O` (stereo not drawn), for which the GI50 was 17.8 µM (inactive) in the assay on UACC-257; 14.6 µM (inactive) with K562; 18.3 µM (inactive) in the assay on SF-268; 17.2 µM (inactive) in the assay with Malme-3M; 16.8 µM (inactive) in the assay on CAKI-1; 12.1 µM (inactive) with BT-549. The GI50 in the assay with PC-3 is 31.8 µM (inactive); in the assay on SK-MEL-5, 15 µM (inactive); in the assay with SR, 12.9 µM (inactive); with A498 it was 0.411 µM (active); in the assay with HL-60 it was 15.2 µM (inactive); in the assay on OVCAR-5, 19.4 µM (inactive). Also, the GI50 is 12.8 µM (inactive) with IGROV-1, 20 µM (inactive) in the assay with MDA-MB-231 and 16.4 µM (inactive) in the assay on DU-145.

As for `CC(=O)/C=C/C=C(\C)CC/C=C(\C)CC(C)C`, the GI50 with UACC-257 was 23.3 µM (inactive); with K562, 21.6 µM (inactive); in the assay with SF-268 it was 39.7 µM (inactive); in the assay with CAKI-1 it was 40.8 µM (inactive); with PC-3, 38.2 µM (inactive); with SK-MEL-5 it was 18.5 µM (inactive). Besides, the GI50 in the assay on SR was 16.1 µM (inactive); in the assay on A498 it was 22 µM (inactive); in the assay on HL-60, 13 µM (inactive); in the assay with OVCAR-5, 61.2 µM (inactive); in the assay on IGROV-1, 28.9 µM (inactive); with MDA-MB-231, 40.9 µM (inactive). The results for the GI50 in the assay on Hs-578T and with DU-145 were 53.5 µM (inactive) and 58.6 µM (inactive), respectively.

For the compound `O=C(c1ccc(/N=C/c2ccccc2O)cc1)c1ccc(/N=C/c2ccccc2O)cc1`, the GI50 in the assay on K562, in the assay on SF-268, with Malme-3M, in the assay with CAKI-1, with BT-549 and in the assay with PC-3 was > 100 µM (inactive) in each case. In addition, the GI50 in the assay with SK-MEL-5 was 6.11 µM (inactive); with SR, > 100 µM (inactive); in the assay on A498, > 100 µM (inactive); in the assay with HL-60, > 100 µM (inactive); with OVCAR-5, > 100 µM (inactive); in the assay on IGROV-1 it was > 100 µM (inactive). Moreover, the GI50 with MDA-MB-231 and with DU-145 was > 100 µM (inactive) throughout.

For `COC(=O)C1=C2SCc3ccc(cc3)CSC3=C(C(=O)OC)SC(=C(S2)S1)S3`, the GI50 is > 100 µM (inactive) in the assay on UACC-257; 43.6 µM (inactive) in the assay with K562; > 100 µM (inactive) with CAKI-1; > 100 µM (inactive) in the assay on PC-3; > 100 µM (inactive) in the assay with SK-MEL-5; > 100 µM (inactive) in the assay with A498. Moreover, the GI50 is 0.253 µM (active) in the assay on HL-60, > 100 µM (inactive) in the assay on MDA-MB-231 and > 100 µM (inactive) in the assay with DU-145.

For the compound `CN(C)Cc1cc(C(=O)/C=C/c2ccc(Cl)c(Cl)c2)cc(CN(C)C)c1O`, the GI50 in the assay on UACC-257 is 2.31 µM (inactive); with K562, 1.31 µM (inactive); in the assay with SF-268, 3.05 µM (inactive); in the assay on Malme-3M it was 2.88 µM (inactive); in the assay with CAKI-1, 1.13 µM (inactive); in the assay with PC-3, 1.96 µM (inactive). Besides, the GI50 was 1.6 µM (inactive) in the assay on SK-MEL-5; 3.17 µM (inactive) with A498; 0.826 µM (active) with HL-60; 8.83 µM (inactive) with OVCAR-5; 3.37 µM (inactive) with IGROV-1; 2.68 µM (inactive) in the assay with MDA-MB-231. Also, the GI50 with Hs-578T was 3.04 µM (inactive); in the assay on DU-145, 4.84 µM (inactive).
